Source: PubChem BioAssay (NCI)
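Following 48 hours of exposure in 96-well plates, responses at five concentrations were used to interpolate endpoints linearly. Abbreviation: GI50, concentration required for 50% inhibition of growth. TGI denotes the concentration required for complete inhibition of growth.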

Experiments:
Experiment in all cases: NCI tumour cell line growth inhibition, 48 h
OVCAR-5 ovarian = tested on: OVCAR-5 ovarian
MALME-3M melanoma = tested on: MALME-3M melanoma
SR leukemia = tested on: SR leukemia
K-562 leukemia = tested on: K-562 leukemia
SF-295 CNS = tested on: SF-295 CNS
U251 CNS = tested on: U251 CNS
A549 NSCLC = tested on: A549 NSCLC
UO-31 renal = tested on: UO-31 renal
SF-539 CNS = tested on: SF-539 CNS
COLO 205 colon = tested on: COLO 205 colon

Compound | GI50 (OVCAR-5 ovarian) [µM] | TGI (OVCAR-5 ovarian) [µM] | GI50 (MALME-3M melanoma) [µM] | TGI (MALME-3M melanoma) [µM] | GI50 (SR leukemia) [µM] | TGI (SR leukemia) [µM] | GI50 (K-562 leukemia) [µM] | TGI (K-562 leukemia) [µM] | GI50 (SF-295 CNS) [µM] | TGI (SF-295 CNS) [µM] | GI50 (U251 CNS) [µM] | TGI (U251 CNS) [µM] | GI50 (A549 NSCLC) [µM] | TGI (A549 NSCLC) [µM] | GI50 (UO-31 renal) [µM] | TGI (UO-31 renal) [µM] | GI50 (SF-539 CNS) [µM] | TGI (SF-539 CNS) [µM] | GI50 (COLO 205 colon) [µM] | TGI (COLO 205 colon) [µM]
CC([C@H]1CCC2C3CCC4C(=O)C(NC=O)=CC[C@]4(C)C3CC[C@@]21C)N(C)C (some centres undefined) | 8.45 | 24.9 | 2.34 | 5.96 | 1.03 | 6.5 | 0.965 | > 23.8 | 2.11 | 5.67 | 3.43 | 15.2 | 3.81 | 12.7 | 1.98 | 7.4 | 1.58 | 3.14 | 1.75 | 3.4
COC(=O)c1nc(N)[nH]c(=O)c1-c1ccc(Cl)cc1 | – | > 100 | – | > 100 | – | > 86.6 | – | > 100 | – | > 100 | – | > 100 | – | > 100 | – | > 100 | – | > 100 | – | > 100
COc1ccc2c(c1)Cc1cc(N=[N+]([O-])c3ccc4c(c3)Cc3cc(OC)ccc3-4)ccc1-2 | – | > 100 | – | > 100 | – | 41.5 | – | > 100 | – | > 100 | – | 30.8 | – | > 100 | – | > 100 | – | 28.5 | – | 28.6
O=C1/C(=C/c2ccc(F)cc2)CN(Cc2cn(CCNc3ccnc4cc(Cl)ccc34)nn2)C/C1=C\c1ccc(F)cc1 | 1.92 | 3.71 | 1.98 | 3.76 | 0.333 | 1.66 | 0.301 | 1.58 | 1.94 | 3.65 | 1.33 | 2.68 | 1.88 | 4.23 | 1.37 | 2.7 | 1.83 | 3.27 | 1.5 | 2.88
O=C(c1ccc(Cl)cc1)N(C(=S)N1CCN(c2ccccc2)CC1)C1CCCCC1 | – | > 100 | – | > 100 | – | > 100 | – | > 100 | – | > 100 | – | > 100 | – | > 100 | – | > 100 | – | > 100 | – | > 100
COc1ccc(NC(=O)CC(=O)n2nc(-c3ccccc3)c(N=Nc3ccc(C)cc3)c2-c2ccccc2)cc1 | – | > 100 | – | 70.3 | – | 98.3 | – | > 100 | – | 52.2 | – | 47.5 | – | 63.3 | – | 55.3 | – | 44 | – | > 100
CC(=O)c1c[nH]c2ccc(-c3ccnc(Nc4ccc(NC(=O)c5cccc(F)c5)c(CN5CCOCC5)c4)n3)cc12 | 0.129 | 1.06 | 0.254 | 0.749 | 0.0363 | > 100 | 0.303 | > 100 | 0.249 | 1.75 | 0.218 | > 21 | 0.185 | > 35.5 | 0.0961 | 1.75 | 0.0809 | 0.457 | 0.0637 | 0.317
N#CC1=C(N)Oc2c(sc3c(F)cccc23)C1c1ccc(Cl)cc1 (centres undefined) | 10.2 | 34 | 6.85 | 26.3 | 1.6 | 13.4 | 1.28 | 16.3 | 2.74 | 9.5 | 3.13 | 11.6 | 4.24 | 17.5 | 2.49 | 11.5 | 2.05 | 5.59 | 2.31 | 6.15
COc1cc(C=C2C(=O)OC(C)(C)OC2=O)cc(OC)c1OC | – | > 100 | – | > 100 | – | > 100 | – | > 100 | – | > 100 | – | > 100 | – | > 100 | – | > 100 | – | > 100 | – | > 100
COc1ccc(CNCCN2C(=O)c3ccc4c5c(ccc(c35)C2=O)C(=O)N(CCNCc2ccc(OC)cc2)C4=O)cc1 | 0.428 | 1.89 | 0.123 | 0.269 | 0.22 | 0.984 | 0.217 | 0.96 | 0.418 | 1.83 | 0.199 | 0.48 | 0.329 | 1.28 | 0.501 | 1.98 | 0.274 | 0.872 | 0.137 | 0.281
CC(C)n1c2c(c3ccccc3c1=O)C(=O)c1ccccc1-2 | – | > 100 | – | > 100 | – | > 100 | – | > 100 | – | > 100 | – | > 100 | – | > 100 | – | > 100 | – | > 100 | – | > 100
COc1ccc(/C(C#N)=C/c2nc3c(N4CCOCC4)nc(Cl)nc3n2C)cc1OC | < 0.0171 | 2.32 | < 0.0152 | 2.01 | < 0.01 | 3.68 | < 0.01 | 11.4 | < 0.01 | 2.17 | < 0.01 | 1.51 | < 0.01 | 1.92 | < 0.01 | 1.65 | < 0.01 | < 0.01 | 0.0172 | 0.0424
CCC(C)CNC1=C(NC(C)=O)C(=O)c2ccccc2C1=O (centres undefined) | – | – | – | > 100 | – | > 100 | – | > 100 | – | > 100 | – | > 100 | – | > 100 | – | > 100 | – | > 100 | – | > 100
Cc1cc(C)c(-c2noc(-c3ccc(Cl)cc3)c2C2=NCCN2)c(C)c1 | – | > 100 | – | 37.7 | – | 48 | – | 37.4 | – | 27.6 | – | 34.3 | – | > 100 | – | 46.9 | – | 32 | – | 35.2
NC(=O)NC1=NCCC(=O)N1CCc1c[nH]c2ccccc12 | – | > 100 | – | 36.9 | – | 57.3 | – | 32.9 | – | > 100 | – | > 100 | – | 54.8 | – | 31.8 | – | 30.9 | – | 27.9
O=C(/C=C(\O)C(=O)O)/C=C(\O)c1ccc(Cl)cc1 | – | > 100 | – | > 100 | – | > 100 | – | > 100 | – | > 100 | – | > 100 | – | > 100 | – | > 100 | – | > 100 | – | > 100
